# Data: publication PMC5765747 (Advanced materials (Deerfield Beach, Fla.), 2017)
# Where a SMILES comes first, the peptide text is derived from it. Bridges are numbered along the chain shown (N, C = ends). [ ]: non-standard residue; d: D form. The star is where a group is joined. X1 = CC[C@H](C)CCCCC(=O)*; Dab = NCC[C@H](N)C(=O)O
# Test system: P. aeruginosa PA01
# Experiment: Overnight culture growth assay
# Assay type: cell-based
compound,measurement,setting,value
CC[C@H](C)CCCCC(=O)N[C@@H](CCN)C(=O)N[C@H](C(=O)N[C@@H](CCN)C(=O)N[C@H]1CCNC(=O)[C@H]([C@@H](C)O)NC(=O)[C@H](CCN)NC(=O)[C@H](CCN)NC(=O)[C@H](CC(C)C)NC(=O)[C@@H](CC(C)C)NC(=O)[C@H](CCN)NC1=O)[C@@H](C)O [colistin] (X1-[Dab]T[Dab][Dab][Dab][dL]L[Dab][Dab]T; lactam 4-C (inferred); N-terminus assumed),MIC,"P. aeruginosa in LB, 2×10^6 CFU/ml, turbidity at 600 nm",0.25 µg/mL
D[KLAKLAK]2 [dKK],inhibitory activity against P. aeruginosa in screening range,"peptide concentration range 0 – 5 µM, Figure S1",no activity
